Data taken from patent US11091535B2, “Thrombin inhibitors for treatment of stroke and related coagulative disorders” (THE UNIVERSITY OF SYDNEY, priority 2016, dated 2021).

Tested on: pooled citrated plasma
Assay: in vitro activated partial thromboplastin time (APTT) assay
Set-up: species or system mice
Conditions: hirudin at concentrations above 2 μg/mL
Protocol: The anticoagulant activity of the thrombin inhibitors disclosed herein is determined by measuring their ability to prolong clotting of human plasma in vitro using a clinical TT assay. Briefly, human plasma from healthy donors (800 μL) is mixed with a concentration range of inhibitors, clotting initiated by addition of thrombin, and clotting time measured using a coagulometer. Compounds which prolong clotting time to 30 sec at a concentration of 50 nM may be further investigated in vitro/ex vivo for APTT. In brief, pooled citrated plasma from C57BL6/J mice is pre-incubated with various concentrations (0-12 μg/mL) of inhibitors. APTT of each plasma sample is quantified following addition of a coagulation activator and CaCl2). In an ex vivo assay, mice are injected i.v. with inhibitors (fixed concentration determined from in vitro APTT) and whole blood collected into sodium citrate (˜130 μL) 0, 5, 30 and 60 min post-administration. APTT is quantified on isolated plasma using a RANDOX APTT kit, with fibrin generation monitored to measure clotting time.
We investigated the ability of the inhibitor of Example 2 (A^Aa) to prolong clotting time in an in vitro activated partial thromboplastin time (APTT) assay (FIG. 1A).

hirudin
increase in clotting time (APTT): 8 fold
